Experimental findings from PubChem BioAssay AID248 (DTP/NCI, 2004) are described below.

In the assay the test system is L1210 leukemia ip in BDF1 mice, survival T/C. Put plainly: NCI In Vivo Anticancer Drug Screen. Data for tumor model L1210 Leukemia (intraperitoneal) in B6D2F1 (BDF1) mice. Conditions: endpoint: mean survival time, higher = longer survival. In short, it runs like this:
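Transplanted-tumor mice were given test agent; controls received vehicle only. Survival readings from the two groups were divided (treated over control).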

The mark [1] stands for this setting: dose: 100.0 mg/kg/injection, schedule: Q04DX002 (ip), vehicle: saline.
Where [2] appears, read: dose: 100.0 mg/kg/injection, schedule: Q01DX001 (ip), vehicle: carboxymethylcellulose (CMC).
The mark [3] stands for this setting: dose: 200.0 mg/kg/injection, schedule: Q01DX001 (ip), vehicle: carboxymethylcellulose (CMC).
[4] abbreviates: dose: 400.0 mg/kg/injection, schedule: Q01DX001 (ip), vehicle: carboxymethylcellulose (CMC).
The mark [5] stands for this setting: dose: 100.0 mg/kg/injection, schedule: Q01DX009 (ip), vehicle: saline with Tween-80.
Setting [6] is: dose: 100.0 mg/kg/injection, schedule: Q04DX003 (ip), vehicle: saline with Tween-80.
The mark [7] stands for this setting: dose: 75.0 mg/kg/injection, schedule: Q01DX001 (ip), vehicle: saline.
Where [8] appears, read: dose: 150.0 mg/kg/injection, schedule: Q01DX001 (ip), vehicle: saline.
Setting [9] is: dose: 200.0 mg/kg/injection, schedule: Q01DX009 (ip), vehicle: saline with Tween-80.
[10] abbreviates: dose: 200.0 mg/kg/injection, schedule: Q04DX003 (ip), vehicle: saline with Tween-80.
Where [11] appears, read: dose: 400.0 mg/kg/injection, schedule: Q04DX003 (ip), vehicle: saline with Tween-80.
The mark [12] stands for this setting: dose: 100.0 mg/kg/injection, schedule: Q01DX001 (ip), vehicle: Klucel (hydroxypropylcellulose) (HPC).
Setting [13] is: dose: 200.0 mg/kg/injection, schedule: Q01DX001 (ip), vehicle: Klucel (hydroxypropylcellulose) (HPC).
The mark [14] stands for this setting: dose: 50.0 mg/kg/injection, schedule: Q01DX009 (ip), vehicle: Klucel (hydroxypropylcellulose) (HPC).
The mark [15] stands for this setting: dose: 100.0 mg/kg/injection, schedule: Q01DX009 (ip), vehicle: Klucel (hydroxypropylcellulose) (HPC).
Where [16] appears, read: dose: 200.0 mg/kg/injection, schedule: Q01DX009 (ip), vehicle: Klucel (hydroxypropylcellulose) (HPC).

Values joined by “and” are separate entries in the source; they are usually repeats but may differ in a detail not shown here. Equal entries are not always repeated. Toxic doses and inconclusive results are not listed.

`O=C(O)CC(C(=O)O)/C(=C\c1ccccc1)c1ccccc1` (stereo unspecified): the T/C is, setting by setting: under setting [1], 94 % of control; (dose: 200.0 mg/kg/injection, schedule: Q04DX002 (ip), vehicle: saline) 113 % of control; (dose: 400.0 mg/kg/injection, schedule: Q04DX002 (ip), vehicle: saline) 110 % of control.

In the case of `c1ccc2c(c1)cc[n+]1c3ccccc3ccc21`, the T/C reads like this: (dose: 1.25 mg/kg/injection, schedule: Q01DX001 (ip), vehicle: saline) 97 % of control; (dose: 2.5 mg/kg/injection, schedule: Q01DX001 (ip), vehicle: saline) 97 % of control; (dose: 5.0 mg/kg/injection, schedule: Q01DX001 (ip), vehicle: saline) 103 % of control; (dose: 10.0 mg/kg/injection, schedule: Q01DX001 (ip), vehicle: saline) 107 % of control.

In the case of `CC(=O)Nc1ccc2c(c1)C(S)c1ccccc1-2` (stereo unspecified), the T/C was 112 % of control under setting [2], 114 % of control under setting [3] and 101 % of control under setting [4].

As for `BrCC1OCCCO1`, the T/C is 96 % of control (dose: 25.0 mg/kg/injection, schedule: Q01DX009 (ip), vehicle: saline with Tween-80); 100 % of control (dose: 25.0 mg/kg/injection, schedule: Q04DX002 (ip), vehicle: saline); 118 % of control (dose: 50.0 mg/kg/injection, schedule: Q04DX002 (ip), vehicle: saline); 114 % of control under setting [5]; 117 % of control (dose: 100.0 mg/kg/injection, schedule: Q04DX002 (ip), vehicle: saline with Tween-80); 100 % of control under setting [1].

Turning to `O=CC(Br)C(Br)c1ccccc1` (stereo unspecified), the T/C under setting [6] was 98 % of control.

Regarding `COc1cc2c(cc1OC)C1=[N+](CCC1)CC2`, the T/C is, setting by setting: under setting [7], 101 % of control; under setting [2], 97 % of control; under setting [8], 102 % of control; under setting [3], 94 % of control; under setting [4], 100 % of control.

For the compound `ClCCCCOCCl`, the T/C was 101 % of control (dose: 50.0 mg/kg/injection, schedule: Q01DX009 (ip), vehicle: saline with Tween-80); 97 % of control under setting [5]; 87 % of control under setting [9].

Regarding `CC1C(=O)C(=O)C(CCc2ccccc2)C1=O` (stereo unspecified), the T/C is, setting by setting: under setting [6], 97 % of control; under setting [10], 97 % of control; under setting [11], 97 % of control.

As for `O=c1[nH]c(Cc2ccccc2)c([N+](=O)[O-])c(=O)[nH]1`, the T/C by setting is: (dose: 50.0 mg/kg/injection, schedule: Q01DX001 (ip), vehicle: Klucel (hydroxypropylcellulose) (HPC)) 94 % of control; under setting [12], 103 % of control; under setting [13], 97 % of control.

Regarding `Cc1ccccc1S(=O)(=O)NC1c2ccccc2Oc2ccccc21`, the T/C was 96 % of control under setting [7]; 86 % of control (dose: 75.0 mg/kg/injection, schedule: Q01DX009 (ip), vehicle: saline); 86 % of control under setting [8]; 86 % of control (dose: 300.0 mg/kg/injection, schedule: Q01DX001 (ip), vehicle: saline).

With `CCCCCCCC/C=C/CCCCCCCCNC(=O)NCCCl`, the T/C under setting [5] is 95 % of control; the T/C under setting [6] is 87 % of control; the T/C under setting [9] is 92 % of control; the T/C under setting [10] was 87 % of control; the T/C under setting [11] was 94 % of control.

For `O=C1OC(=O)C2C(c3ccccc3)C=C(Cl)C(CCCl)C12` (stereo unspecified), the T/C runs as follows: under setting [12], 101 % of control; under setting [13], 97 % of control; (dose: 400.0 mg/kg/injection, schedule: Q01DX001 (ip), vehicle: Klucel (hydroxypropylcellulose) (HPC)) 95 % of control.

As to `Nc1cc(Cl)c2[nH]cnc2n1`, the T/C is 179 % of control (dose: 33.0 mg/kg/injection, schedule: Q01DX009 (ip), vehicle: Klucel (hydroxypropylcellulose) (HPC)); 151 % of control and 159 % of control under setting [14]; 161 % of control (dose: 75.0 mg/kg/injection, schedule: Q01DX009 (ip), vehicle: Klucel (hydroxypropylcellulose) (HPC)); 118 % of control under setting [12]; 97 % of control under setting [15]; 119 % of control (dose: 133.0 mg/kg/injection, schedule: Q01DX001 (ip), vehicle: Klucel (hydroxypropylcellulose) (HPC)). The T/C under setting [13] is 121 % of control and the T/C (dose: 300.0 mg/kg/injection, schedule: Q01DX001 (ip), vehicle: Klucel (hydroxypropylcellulose) (HPC)) was 122 % of control.

For the compound `O=C(Nc1cccc(C(F)(F)F)c1)c1cccc(C(=O)Nc2cccc(C(F)(F)F)c2)c1`, the T/C runs as follows: (dose: 12.5 mg/kg/injection, schedule: Q04DX003 (ip), vehicle: saline with Tween-80) 96 % of control; (dose: 25.0 mg/kg/injection, schedule: Q04DX003 (ip), vehicle: saline with Tween-80) 91 % of control; (dose: 50.0 mg/kg/injection, schedule: Q04DX003 (ip), vehicle: saline with Tween-80) 90 % of control.

On to `Cc1ccc(C(C)(C)C)c(OCC2=NCCN2)c1`, for which the T/C runs as follows: (dose: 10.0 mg/kg/injection, schedule: Q04DX003 (ip), vehicle: Klucel (hydroxypropylcellulose) (HPC)) 96 % of control; (dose: 12.5 mg/kg/injection, schedule: Q01DX009 (ip), vehicle: Klucel (hydroxypropylcellulose) (HPC)) 86 % of control; (dose: 20.0 mg/kg/injection, schedule: Q04DX003 (ip), vehicle: Klucel (hydroxypropylcellulose) (HPC)) 90 % of control; (dose: 25.0 mg/kg/injection, schedule: Q01DX009 (ip), vehicle: Klucel (hydroxypropylcellulose) (HPC)) 96 % of control; (dose: 40.0 mg/kg/injection, schedule: Q04DX003 (ip), vehicle: Klucel (hydroxypropylcellulose) (HPC)) 96 % of control; under setting [14], 104 % of control.

Regarding `O=[N+]([O-])c1cccc(NCn2c(=S)[nH]c3ccccc32)c1`, the T/C was 102 % of control under setting [15] and 106 % of control under setting [16].

Consider `O=C(O)CC1OCC=C2CN3CCC45C6=CC(=O)C(=O)C([N+](=O)[O-])=C6NC4C1C2CC35` (stereo unspecified), for which, for the setting “dose: 25.0 mg/kg/injection, schedule: Q01DX001 (ip), vehicle: carboxymethylcellulose (CMC)”, the T/C is 98 % of control.

Regarding `O=[N+]([O-])c1ccc([N+](=O)[O-])c2nsnc12`, the T/C was 98 % of control (dose: 12.5 mg/kg/injection, schedule: Q04DX003 (ip), vehicle: Klucel (hydroxypropylcellulose) (HPC)) and 102 % of control (dose: 25.0 mg/kg/injection, schedule: Q04DX003 (ip), vehicle: Klucel (hydroxypropylcellulose) (HPC)).

As for `COC(=O)C(NC(=O)C(C)NC(=O)c1cnc2ccccc2n1)C(C)C` (stereo unspecified), the T/C runs as follows: (dose: 100.0 mg/kg/injection, schedule: Q01DX001 (ip), vehicle: saline) 91 % of control; (dose: 200.0 mg/kg/injection, schedule: Q01DX001 (ip), vehicle: saline) 98 % of control.

As for `Cc1ccc(S(=O)(=O)Nc2cc(Cl)c(I)c(Cl)c2)cc1`, the T/C is, setting by setting: under setting [15], 96 % of control; under setting [16], 102 % of control; (dose: 400.0 mg/kg/injection, schedule: Q01DX009 (ip), vehicle: Klucel (hydroxypropylcellulose) (HPC)) 100 % of control.

As to `COc1ccc(/C=C2\SC(=S)NC2=O)cc1OC`, the T/C is, setting by setting: (dose: 100.0 mg/kg/injection, schedule: Q01DX009 (ip), vehicle: saline sonified) 96 % of control; (dose: 100.0 mg/kg/injection, schedule: Q04DX003 (ip), vehicle: Klucel (hydroxypropylcellulose) (HPC)) 98 % of control; (dose: 200.0 mg/kg/injection, schedule: Q01DX009 (ip), vehicle: saline sonified) 108 % of control; (dose: 200.0 mg/kg/injection, schedule: Q04DX003 (ip), vehicle: Klucel (hydroxypropylcellulose) (HPC)) 96 % of control; (dose: 400.0 mg/kg/injection, schedule: Q01DX009 (ip), vehicle: saline sonified) 94 % of control; (dose: 400.0 mg/kg/injection, schedule: Q04DX003 (ip), vehicle: Klucel (hydroxypropylcellulose) (HPC)) 96 % of control.
